# Measured values taken from US10703760B2, “Morphic forms of marizomib and uses thereof” (Celgene International II Sàrl, priority 2016, dated 2020).
# How the values were obtained:
# Assay type in all cases: physicochemical
# [1] = Thermogravimetric analysis (TGA); conditions: heated at 10° C./min under nitrogen
# Procedure: TGA data were collected on a TA Instruments Q500 TGA, equipped with a 16-position auto-sampler. The instrument was temperature calibrated using certified Alumel™ and Nickel. Typically 5-10 mg of each sample was loaded onto a pre-tared aluminum DSC pan and heated at 10° C./min from ambient temperature to 350° C. A nitrogen purge at 60 ml/min was maintained over the sample.
# TG analyses were performed using a TA Instruments Q5000 IR thermogravimetric analyzer. Temperature calibration was performed using nickel and Alumel™. Each sample was placed in an aluminum pan. The sample was hermetically sealed, the lid pierced, then inserted into the TG furnace. The furnace was heated under nitrogen.
# [2] = Hydrolysis of marizomib / chemical purity by HPLC after solvent exposure; conditions: starting material 98.2%
# Procedure: Purity analysis was performed on an Agilent HP1100 series system equipped with a diode array detector and using ChemStation software vB.04.03 using the method set forth in Table-5.
# 30 mg of Sample 1 was suspended in the given solvent shown in Table 6 (1 ml) at room temperature. The samples were matured between 50° C. and room temperature heat-cool cycles (8 h per cycle) for 96 h. The solids were filtered, air dried and analyzed by XRPD.
# [3] = Variable temperature XRPD
# Procedure: Samples run under non-ambient conditions were mounted on a silicon wafer with heat-conducting compound. The sample was then heated to the appropriate temperature at 20° C./min and subsequently held isothermally for 1 minute before data collection was initiated.
# [4] = Polymorphism screening of Sample 1 (solubility observations, maturation, cooling, XRPD); set-up: key to Obs. at r.t. 10 vol. / Obs. at r.t. 20 vol. / Obs. at r.t. 30 vol. / Obs. at r.t. 40 vol. / Obs. at r.t. 50 vol. / Maturation 50° C./r.t. / Cooling at 5° C.: ✓ = Soluble; X = Insoluble,; conditions: for Maturation 50° C./r.t.: heat-cool cycles 24 h; for Cooling at 5° C.: held at 5° C. for 48 h
# Procedure: Polymorphism studies on marizomib were carried out in different solvents and conditions to understand the polymorphic behavior of the free form. Marizomib (Sample 1, 30 mg) was dissolved or suspended in the given solvent at room temperature. Solvent was added until the material dissolved or up to a maximum of 50 volumes. The suspensions were matured between 50° C. and room temperature heat-cool cycles (8 h per cycle) for 24 h. The solutions were cooled to and held at 5° C. for 48 h. If no solid was obtained then the solutions were allowed to evaporate slowly at room temperature. All the recovered solids were analyzed by XRPD.
smiles,measurement,setting,value
"C[C@@]12OC(=O)[C@]1([C@@H](O)[C@@H]1C=CCCC1)NC(=O)[C@@H]2CCCl [Sample 3, marizomib]",TGA: no weight loss observed until (weight loss can be due to sample degradation),[1],about 175 °C
"C[C@@]12OC(=O)[C@]1([C@@H](O)[C@@H]1C=CCCC1)NC(=O)[C@@H]2CCCl [Sample 1, marizomib]",Chemical purity (HPLC) of solid isolated from polymorphism screen,[2]; isolated from EtOAc experiment,96.8%
same,Chemical purity (HPLC) of solid isolated from polymorphism screen,[2]; isolated from EtOH experiment,97.4%
same,Morphic form on heating (variable temperature XRPD),[3]; 25° C. to 160° C.,remained as Form I
same,Discoloration (white to yellow) temperature; melting and/or degradation after about five minutes hold,[3]; during variable temperature XRPD,about 160 °C
same,Obs. at r.t. 10 vol.,[4]; 2-Propanol,X
same,Obs. at r.t. 20 vol.,[4]; 2-Propanol,X
same,Obs. at r.t. 30 vol.,[4]; 2-Propanol,X
same,Obs. at r.t. 40 vol.,[4]; 2-Propanol,X
same,Obs. at r.t. 50 vol.,[4]; 2-Propanol,X
same,Maturation 50° C./r.t.,[4]; 2-Propanol,X
same,Morphic form obtained from polymorphism screen (XRPD),"[4]; 20 solvents, maturation, cooling, evaporation",Form I was the only form obtained
same,Obs. at r.t. 10 vol.,[4]; Acetone,X
same,Obs. at r.t. 20 vol.,[4]; Acetone,X
same,Obs. at r.t. 30 vol.,[4]; Acetone,X
same,Obs. at r.t. 40 vol.,[4]; Acetone,X
same,Obs. at r.t. 50 vol.,[4]; Acetone,X
same,Maturation 50° C./r.t.,[4]; Acetone,✓
same,Cooling at 5° C.,[4]; Acetone,✓
same,Obs. at r.t. 10 vol.,[4]; Acetonitrile,X
same,Obs. at r.t. 20 vol.,[4]; Acetonitrile,X
same,Obs. at r.t. 30 vol.,[4]; Acetonitrile,X
same,Obs. at r.t. 40 vol.,[4]; Acetonitrile,X
same,Obs. at r.t. 50 vol.,[4]; Acetonitrile,X
same,Maturation 50° C./r.t.,[4]; Acetonitrile,X
same,Obs. at r.t. 10 vol.,[4]; Anisole,X
same,Obs. at r.t. 20 vol.,[4]; Anisole,X
same,Obs. at r.t. 30 vol.,[4]; Anisole,X
same,Obs. at r.t. 40 vol.,[4]; Anisole,X
same,Obs. at r.t. 50 vol.,[4]; Anisole,X
same,Maturation 50° C./r.t.,[4]; Anisole,X
same,Obs. at r.t. 10 vol.,[4]; Chloroform,X
same,Obs. at r.t. 20 vol.,[4]; Chloroform,✓
same,Cooling at 5° C.,[4]; Chloroform,✓
same,Obs. at r.t. 10 vol.,[4]; Cumene,X
same,Obs. at r.t. 20 vol.,[4]; Cumene,X
same,Obs. at r.t. 30 vol.,[4]; Cumene,X
same,Obs. at r.t. 40 vol.,[4]; Cumene,X
same,Obs. at r.t. 50 vol.,[4]; Cumene,X
same,Maturation 50° C./r.t.,[4]; Cumene,X
same,Obs. at r.t. 10 vol.,[4]; DMA,X
same,Obs. at r.t. 20 vol.,[4]; DMA,✓
same,Cooling at 5° C.,[4]; DMA,✓
same,Obs. at r.t. 10 vol.,[4]; DMF,X
same,Obs. at r.t. 20 vol.,[4]; DMF,✓
same,Cooling at 5° C.,[4]; DMF,✓
same,Obs. at r.t. 10 vol.,[4]; Dichloromethane,X
same,Obs. at r.t. 20 vol.,[4]; Dichloromethane,X
same,Obs. at r.t. 30 vol.,[4]; Dichloromethane,X
same,Obs. at r.t. 40 vol.,[4]; Dichloromethane,X
same,Obs. at r.t. 50 vol.,[4]; Dichloromethane,X
same,Maturation 50° C./r.t.,[4]; Dichloromethane,X
same,Obs. at r.t. 10 vol.,[4]; Dimethyl sulfoxide,X
same,Obs. at r.t. 20 vol.,[4]; Dimethyl sulfoxide,X
same,Obs. at r.t. 30 vol.,[4]; Dimethyl sulfoxide,X
same,Obs. at r.t. 40 vol.,[4]; Dimethyl sulfoxide,X
same,Obs. at r.t. 50 vol.,[4]; Dimethyl sulfoxide,X
same,Maturation 50° C./r.t.,[4]; Dimethyl sulfoxide,✓
same,Cooling at 5° C.,[4]; Dimethyl sulfoxide,✓
same,Obs. at r.t. 10 vol.,[4]; Ethanol,X
same,Obs. at r.t. 20 vol.,[4]; Ethanol,X
same,Obs. at r.t. 30 vol.,[4]; Ethanol,X
same,Obs. at r.t. 40 vol.,[4]; Ethanol,X
same,Obs. at r.t. 50 vol.,[4]; Ethanol,X
same,Maturation 50° C./r.t.,[4]; Ethanol,X
same,Obs. at r.t. 10 vol.,[4]; Ethyl acetate,X
same,Obs. at r.t. 20 vol.,[4]; Ethyl acetate,X
same,Obs. at r.t. 30 vol.,[4]; Ethyl acetate,X
same,Obs. at r.t. 40 vol.,[4]; Ethyl acetate,X
same,Obs. at r.t. 50 vol.,[4]; Ethyl acetate,X
same,Maturation 50° C./r.t.,[4]; Ethyl acetate,✓
same,Cooling at 5° C.,[4]; Ethyl acetate,✓
same,Obs. at r.t. 10 vol.,[4]; Isopropyl acetate,X
same,Obs. at r.t. 20 vol.,[4]; Isopropyl acetate,X
same,Obs. at r.t. 30 vol.,[4]; Isopropyl acetate,X
same,Obs. at r.t. 40 vol.,[4]; Isopropyl acetate,X
same,Obs. at r.t. 50 vol.,[4]; Isopropyl acetate,X
same,Maturation 50° C./r.t.,[4]; Isopropyl acetate,X
same,Obs. at r.t. 10 vol.,[4]; MEK,X
same,Obs. at r.t. 20 vol.,[4]; MEK,X
same,Obs. at r.t. 30 vol.,[4]; MEK,X
same,Obs. at r.t. 40 vol.,[4]; MEK,X
same,Obs. at r.t. 50 vol.,[4]; MEK,X
same,Maturation 50° C./r.t.,[4]; MEK,✓
same,Cooling at 5° C.,[4]; MEK,✓
same,Obs. at r.t. 10 vol.,[4]; MIBK,X
same,Obs. at r.t. 20 vol.,[4]; MIBK,X
same,Obs. at r.t. 30 vol.,[4]; MIBK,X
same,Obs. at r.t. 40 vol.,[4]; MIBK,X
same,Obs. at r.t. 50 vol.,[4]; MIBK,X
same,Maturation 50° C./r.t.,[4]; MIBK,X
same,Obs. at r.t. 10 vol.,[4]; Nitromethane,X
same,Obs. at r.t. 20 vol.,[4]; Nitromethane,X
same,Obs. at r.t. 30 vol.,[4]; Nitromethane,X
same,Obs. at r.t. 40 vol.,[4]; Nitromethane,X
same,Obs. at r.t. 50 vol.,[4]; Nitromethane,X
same,Maturation 50° C./r.t.,[4]; Nitromethane,X
same,Obs. at r.t. 10 vol.,[4]; Tetrahydrofuran,X
same,Obs. at r.t. 20 vol.,[4]; Tetrahydrofuran,✓
same,Cooling at 5° C.,[4]; Tetrahydrofuran,✓
same,Obs. at r.t. 10 vol.,[4]; Toluene,X
same,Obs. at r.t. 20 vol.,[4]; Toluene,X
same,Obs. at r.t. 30 vol.,[4]; Toluene,X
same,Obs. at r.t. 40 vol.,[4]; Toluene,X
same,Obs. at r.t. 50 vol.,[4]; Toluene,X
same,Maturation 50° C./r.t.,[4]; Toluene,X
same,Obs. at r.t. 10 vol.,[4]; n-Heptane,X
same,Obs. at r.t. 20 vol.,[4]; n-Heptane,X
same,Obs. at r.t. 30 vol.,[4]; n-Heptane,X
same,Obs. at r.t. 40 vol.,[4]; n-Heptane,X
same,Obs. at r.t. 50 vol.,[4]; n-Heptane,X
same,Maturation 50° C./r.t.,[4]; n-Heptane,X
same,Obs. at r.t. 10 vol.,[4]; tert-Butylmethyl ether,X
same,Obs. at r.t. 20 vol.,[4]; tert-Butylmethyl ether,X
same,Obs. at r.t. 30 vol.,[4]; tert-Butylmethyl ether,X
same,Obs. at r.t. 40 vol.,[4]; tert-Butylmethyl ether,X
same,Obs. at r.t. 50 vol.,[4]; tert-Butylmethyl ether,X
same,Maturation 50° C./r.t.,[4]; tert-Butylmethyl ether,X
